Measurements from ChEMBL document CHEMBL3046414, “Synthesis, anticancer, anti-HIV-1, and antimicrobial activity of some tricyclic triazino and triazolo[4,3-e]purine derivatives” (Med Chem Res, 2012).
Values after ≈ are worked out from the molar mass of the structure shown.

Tests used:
Bacillus spizizenii [1] = assay: Antimicrobial activity against Bacillus subtilis subsp. spizizenii ATCC 6633 after 24 hr by agar cup diffusion technique; assay type: functional
Staphylococcus aureus [2] = assay: Antimicrobial activity against Staphylococcus aureus NCTC 4163 after 24 hr by agar cup diffusion technique; assay type: functional
Candida albicans [3] = assay: Antimicrobial activity against Candida albicans NCTC 2708 after 48 hr by agar cup diffusion technique; assay type: functional
Saccharomyces cerevisiae [4] = assay: Antimicrobial activity against Saccharomyces cerevisiae ATCC 9763 after 48 hr by agar cup diffusion technique; assay type: functional
Staphylococcus aureus [5] = assay: Antimicrobial activity against Staphylococcus aureus NCTC 4163 after 24 hr by two-fold serial dilution method; assay type: functional; conditions: NCTC 4163, 24 h
Proteus vulgaris [6] = assay: Antimicrobial activity against Proteus vulgaris ATCC 49132 after 24 hr by agar cup diffusion technique; assay type: functional
Escherichia coli [7] = assay: Antimicrobial activity against Escherichia coli 5933 after 24 hr by agar cup diffusion technique; assay type: functional
Pseudomonas aeruginosa [8] = assay: Antimicrobial activity against Pseudomonas aeruginosa ATCC 9027 after 24 hr by agar cup diffusion technique; assay type: functional
Aspergillus niger [9] = assay: Antimicrobial activity against Aspergillus niger ATCC 16404 after 48 hr by two-fold serial dilution method; assay type: functional; conditions: ATCC 16404, 48 h
Aspergillus niger [10] = assay: Antimicrobial activity against Aspergillus niger ATCC 16404 after 48 hr by agar cup diffusion technique; assay type: functional
Proteus vulgaris [11] = assay: Antimicrobial activity against Proteus vulgaris ATCC 49132 after 24 hr by two-fold serial dilution method; assay type: functional; conditions: ATCC 49132, 24 h
Pseudomonas aeruginosa [12] = assay: Antimicrobial activity against Pseudomonas aeruginosa ATCC 9027 after 24 hr by two-fold serial dilution method; assay type: functional; conditions: ATCC 9027, 24 h
CCRF-CEM = assay: Cytotoxicity against Homo sapiens (human) CEM cells by XTT assay; assay type: cell-based
[13] = tested on: Human immunodeficiency virus 1; assay: Antiviral activity against Human immunodeficiency virus 1 infected CEM cells assessed as inhibition of virus-induced cytopathic effect at 2 X 10^-4 M by XTT assay; assay type: functional; conditions: Human immunodeficiency virus 1, CCRF-CEM
Salmonella typhi [14] = assay: Antimicrobial activity against Salmonella enterica subsp. enterica serovar Typhi ATCC 13311 after 24 hr by agar cup diffusion technique; assay type: functional
Aspergillus terreus [15] = assay: Antimicrobial activity against Aspergillus terreus after 48 hr by agar cup diffusion technique; assay type: functional
Escherichia coli [16] = assay: Antimicrobial activity against Escherichia coli 5933 after 24 hr by two-fold serial dilution method; assay type: functional; conditions: Escherichia coli, 5933, 24 h
Bacillus spizizenii [17] = assay: Antimicrobial activity against Bacillus subtilis subsp. spizizenii ATCC 6633 after 24 hr by two-fold serial dilution method; assay type: functional; conditions: ATCC 6633, 24 h
Aspergillus terreus [18] = assay: Antimicrobial activity against Aspergillus terreus after 48 hr by two-fold serial dilution method; assay type: functional
Saccharomyces cerevisiae [19] = assay: Antimicrobial activity against Saccharomyces cerevisiae ATCC 9763 after 48 hr by two-fold serial dilution method; assay type: functional; conditions: ATCC 9763, 48 h
Candida albicans [20] = assay: Antimicrobial activity against Candida albicans NCTC 2708 after 48 hr by two-fold serial dilution method; assay type: functional; conditions: NCTC 2708, 48 h
Salmonella typhi [21] = assay: Antimicrobial activity against Salmonella enterica subsp. enterica serovar Typhi ATCC 13311 after 24 hr by two-fold serial dilution method; assay type: functional; conditions: ATCC 13311, 24 h

In the case of `CCSc1nnc2n(C)c3c(=O)n(C)c(=O)n(C)c3n12`, the “inhibition zone (IZ)” value (Bacillus spizizenii [1]) is reported as 13 mm, the “inhibition zone (IZ)” value (Staphylococcus aureus [2]) is reported as 20 mm and the “inhibition zone (IZ)” value (Candida albicans [3]) is reported as 11 mm. For the same molecule, the “inhibition zone (IZ)” value (Saccharomyces cerevisiae [4]) was 13 mm, the MIC (Staphylococcus aureus [5]) was < 200 mg/L and the “inhibition zone (IZ)” value (Proteus vulgaris [6]) was 19 mm. The “inhibition zone (IZ)” value (Escherichia coli [7]) was 12 mm and the “inhibition zone (IZ)” value (Pseudomonas aeruginosa [8]) was 19 mm.
In the case of `Cn1c(=O)c2c(n(C)c1=O)n1c(-c3ccc(Br)cc3)nnc1n2C`, the MIC (Aspergillus niger [9]) is reported as < 100 mg/L, the “inhibition zone (IZ)” value (Bacillus spizizenii [1]) is reported as 11 mm and the “inhibition zone (IZ)” value (Staphylococcus aureus [2]) is reported as 14 mm. The “inhibition zone (IZ)” value (Aspergillus niger [10]) was 22 mm, the “inhibition zone (IZ)” value (Candida albicans [3]) was 14 mm and the “inhibition zone (IZ)” value (Saccharomyces cerevisiae [4]) was 13 mm. The MIC (Proteus vulgaris [11]) was < 100 mg/L, the MIC (Pseudomonas aeruginosa [12]) was < 200 mg/L and the “inhibition zone (IZ)” value (Proteus vulgaris [6]) was 22 mm. For the same molecule, the “inhibition zone (IZ)” value (Escherichia coli [7]) was 12 mm and the “inhibition zone (IZ)” value (Pseudomonas aeruginosa [8]) was 20 mm.
`Cn1c(=O)c2[nH]c(/N=N/c3c(N)n[nH]c3N)nc2n(C)c1=O` was tested, and the “inhibition zone (IZ)” value (Bacillus spizizenii [1]) was 10 mm, the IC50 (CCRF-CEM) was > 200 µM and the “inhibition zone (IZ)” value (Candida albicans [3]) was 11 mm. For the same molecule, the “inhibition zone (IZ)” value (Saccharomyces cerevisiae [4]) was 12 mm, the “inhibition zone (IZ)” value (Proteus vulgaris [6]) was 14 mm and the inhibition at 200 µM [13] was 30.5%.
`COc1ccc(-c2nnc3n(C)c4c(=O)n(C)c(=O)n(C)c4n23)cc1` was tested, and the “inhibition zone (IZ)” value (Salmonella typhi [14]) was 17 mm, the “inhibition zone (IZ)” value (Bacillus spizizenii [1]) was 20 mm and the “inhibition zone (IZ)” value (Staphylococcus aureus [2]) was 14 mm. The “inhibition zone (IZ)” value (Aspergillus terreus [15]) was 16 mm, the “inhibition zone (IZ)” value (Candida albicans [3]) was 18 mm and the “inhibition zone (IZ)” value (Saccharomyces cerevisiae [4]) was 16 mm. The MIC (Proteus vulgaris [11]) was < 50 mg/L, the MIC (Escherichia coli [16]) was < 200 mg/L and the MIC (Pseudomonas aeruginosa [12]) was < 200 mg/L. For the same molecule, the MIC (Bacillus spizizenii [17]) was < 200 mg/L, the “inhibition zone (IZ)” value (Proteus vulgaris [6]) was 28 mm and the “inhibition zone (IZ)” value (Escherichia coli [7]) was 20 mm. The “inhibition zone (IZ)” value (Pseudomonas aeruginosa [8]) was 21 mm.
In the case of `Cn1c(=O)c2nc3[nH]nc(C#N)c(=O)n3c2n(C)c1=O`, the IC50 (CCRF-CEM) is reported as > 200 µM, the “inhibition zone (IZ)” value (Staphylococcus aureus [2]) is reported as 14 mm and the “inhibition zone (IZ)” value (Candida albicans [3]) is reported as 15 mm. For the same molecule, the “inhibition zone (IZ)” value (Saccharomyces cerevisiae [4]) was 14 mm, the MIC (Proteus vulgaris [11]) was < 100 mg/L and the “inhibition zone (IZ)” value (Proteus vulgaris [6]) was 22 mm. The “inhibition zone (IZ)” value (Escherichia coli [7]) was 12 mm, the “inhibition zone (IZ)” value (Pseudomonas aeruginosa [8]) was 16 mm and the inhibition at 200 µM [13] was 10.9%.
`Clc1ccccc1C(c1ccccc1)(c1ccccc1)n1ccnc1` [CLOTRIMAZOLE] gave an MIC (Aspergillus terreus [18]) of 10 mg/L (≈ 29 µM), an MIC (Aspergillus niger [9]) of 10 mg/L (≈ 29 µM) and an MIC (Saccharomyces cerevisiae [19]) of 5 mg/L (≈ 14.5 µM). For the same molecule, the MIC (Candida albicans [20]) was 5 mg/L (≈ 14.5 µM).
In the case of `Cn1c(=O)c2c(n(C)c1=O)n1c(=S)[nH]nc1n2C`, the “inhibition zone (IZ)” value (Bacillus spizizenii [1]) is reported as 11 mm, the “inhibition zone (IZ)” value (Staphylococcus aureus [2]) is reported as 24 mm and the “inhibition zone (IZ)” value (Candida albicans [3]) is reported as 11 mm. For the same molecule, the “inhibition zone (IZ)” value (Saccharomyces cerevisiae [4]) was 12 mm, the MIC (Pseudomonas aeruginosa [12]) was < 100 mg/L and the MIC (Staphylococcus aureus [5]) was < 50 mg/L. For the same molecule, the “inhibition zone (IZ)” value (Proteus vulgaris [6]) was 19 mm, the “inhibition zone (IZ)” value (Escherichia coli [7]) was 12 mm and the “inhibition zone (IZ)” value (Pseudomonas aeruginosa [8]) was 21 mm.
Molecule `CC1(C)S[C@@H]2[C@H](NC(=O)[C@H](N)c3ccccc3)C(=O)N2[C@H]1C(=O)O` [AMPICILLIN] has an MIC (Proteus vulgaris [11]) of 50 mg/L (≈ 143 µM), an MIC (Pseudomonas aeruginosa [12]) of 100 mg/L (≈ 286 µM) and an MIC (Salmonella typhi [21]) of 100 mg/L (≈ 286 µM). For the same molecule, the MIC (Staphylococcus aureus [5]) was 5 mg/L (≈ 14.3 µM) and the MIC (Bacillus spizizenii [17]) was 5 mg/L (≈ 14.3 µM).
